Source: patent US9879235B2, “Wheat plants having increased resistance to imidazolinone herbicides” (University of Saskatchewan, priority 2001, dated 2018)

Assays:
[1] = system: line derived from the cross of 15A and 11A; assay: Seedling injury rating, three-gene line; assay type: in vivo, wheat
Description: (§1) Four genotypes were tested for tolerance to two different rates of imazamox. Genotypes included an FS4 only line, BW755; Tea1 15A, previously described as having two independent loci for tolerance to Imi-herbicides; a double-haploid derived line of EM2+FS4, and a line derived from the cross of 15A and 11A, through conventional bulk selection of the most tolerant plants over successive generations at increasing rates of imazamox. Rates of imazamox included 200 and 600 grams per hectare. Seedling injury of the 18 to 25 plants per treatment per genotype was rated on a per plant basis using five categories ranging from death to no injury.

[2] = system: susceptible durum line used as a check; assay: Tolerance test, susceptible durum check; assay type: in vivo, T. turgidum ssp durum; conditions: 80 g/h of imazamox
Tea1 15A = assay: Seedling injury rating, two-gene line Tea1 15A; assay type: in vivo, wheat
Description: as §1

[3] = system: EM2 line in Einkorn background; assay: Field evaluation of herbicide injury, EM2 line; assay type: in vivo, Triticum monococcum; conditions: for overall crop injury: three rates of imazamox
Description: (§2) Approximately 15,000 seeds of the Triticum monococcum spring habit accession “TM23” was treated with EMS. The method used was: (1) presoak seed in water for four hours, (2) treat with 0.3% EMS for 16 hours, (3) rinse in water for 8 hours, (4) air-dry for four hours, and (5) plant the seed. Some of the harvested seed was further increased without selection for tolerance to imidazolinone herbicides. The harvested seed was planted and treated with 40 g/ha of imazamox. A total of 120 kg of seed was planted, resulting in approximately 2.4 million plants treated, assuming a kernel weight of 35 mg and 70% seedling emergence. The generation of seed screened ranged from M2 to M5, with over 72% of seed at least M3. Five plants were identified as tolerant, designated EM1 through EM5, and transplanted to a greenhouse for seed production. EM2 was increased under imidazolinone herbicide selection prior to initial field testing (Example 4).
(§3) The EM2 line tolerant to imazamox (Example 1) was evaluated at a single field location for various agronomic characteristics that could be affected by herbicide injury. The 1998 data are means of two replications. Yield data from 1999 and 2000 are means of four replications. The other data from 1999 are means of two replications.
(§4) The EM2 line was evaluated for overall crop injury at three rates of imazamox, three times during the growing season.

[4] = system: susceptible hexaploid check / susceptible wheat plants; assay: Tolerance test, susceptible hexaploid check; assay type: in vivo, T. aestivum
Text: In all the following discussion, the application rate of the imidazolinone herbicide imazamox that was used in the inheritance studies was 20 grams per hectare.
(§5) The breeding history of the lines tested was previously described (Example 2). […] The doubled haploid derived line P00.45, composed of EM2 in a hexaploid background, was tolerant to 20 g/ha imazamox as a parental check in allelism studies described in Example 3; all plants of the susceptible hexaploid check were killed at that rate.

[5] = system: double-haploid derived line of EM2+FS4; assay: Seedling injury rating, two-gene line EM2+FS4; assay type: in vivo, wheat
Description: as §1

[6] = system: P00.45 (EM2 in a hexaploid background); assay: Tolerance of doubled haploid line P00.45 (parental check in allelism studies); assay type: in vivo, T. aestivum ssp aestivum; conditions: 20 g/ha imazamox
Text: EMIMI is the designation of the T. monococcum EM2 source parent. Crocus is the designation of the T. aestivum ssp aestivum parent used. 605 florets of crocus were pollinated with EMIMI pollen, resulting in 84 F1 seed. 38,409 florets of the F1 plants were pollinated using Crocus pollen, resulting in 2 embryos which were embryo-rescued. The resultant BC1F1 plants were selfed to BC1F2 and treated with 20 g/ha of imazamox. […] Resistant plants were crossed by the bread wheat variety Tea1, representing the 3rd dose of bread wheat. Plants of the resultant line, with a pedigree of Crocus*2/EMIMI//CDC Tea1/3/ were crossed with either AC Elsa or AC Superb and coded respectively, 98PH8 (Elsa cross) and 98PH9 (Superb cross), 98PH8 was crossed an additional six times with AC Elsa and 98PH8 was crossed an additional six times with AC Superb. Two populations were coded as follows: • P00.35=98PH8/6*Elsa=Crocus*2/EM2//CDC Tea1/3/7*AC Elsa • P00.45=98PH9/6*Superb=Crocus*2/EM2//CDC Tea1/3/7*AC Superb. Segregation of the backcross-derived plants in both populations fit an expected 1:1 tolerant:susceptible single gene model when treated with 20 g/h of imazamox. […] Doubled haploids were produced from each population using the maize pollination method. Seven resistant DH lines were obtained from P00.35 and 78 resistant DH lines were obtained from P00.45. […]

[7] = system: Einkorn check (non-herbicide tolerant); assay: Field evaluation of herbicide injury, Einkorn check; assay type: in vivo, Triticum monococcum
Description: as §3, §4

[8] = system: EMS-treated Triticum monococcum accession TM23; assay: Selection of tolerant plants after EMS mutagenesis; assay type: in vivo; conditions: 40 g/ha of imazamox, approximately 2.4 million plants treated
Description: as §2

[9] = system: 00DIMI#17 (EM2 in durum background); assay: Tolerance of EM2 durum recovery 00DIMI#17; assay type: in vivo, T. turgidum ssp durum
Description: (§6) T. aestivum was used as the bridging species to transfer the EM2 gene from T. monococcum to T. turgidum. In each generation, plants were treated with at least a 20 g/h rate of imazamox prior to selecting plants as parents. An intermediate T. aestivum conversion with the pedigree “Crocus*2/EM2//CDC Tea1/3/2*AC Superb” tolerant to imazamox was crossed by the durum line AC Avonlea. The resultant F1 plants were selfed to produce an F2 population, from which 52/390 plants were identified as resistant (no injury from herbicide application). Some of these were used as females and crossed by AC Avonlea. The resultant BC1F1 plants were again crossed by AC Avonlea. For the subsequent two generations, AC Avonlea was used as the female. The resultant line was designated 00DIMI#17 and had the pedigree: AC Avonlea*2/3/Crocus*2/EM2//CDC Tea1/3/2*AC Superb//3*AC Avonlea. This line was selfed to the F2, and F2 plants treated with 40 g/h of imazamox. Resistant F2 plants were advanced to the F4 generation.
as §5

BW755 (FS4 only line) = assay: Seedling injury rating, one-gene line; assay type: in vivo, wheat; conditions: 200 and 600 grams per hectare
Description: as §1

[10] = system: F2 population of Crocus*2/EM2//CDC Tea1/3/2*AC Superb crossed by AC Avonlea; assay: Herbicide selection in F2 of EM2 conversion x AC Avonlea; assay type: in vivo, T. aestivum x T. turgidum; conditions: at least a 20 g/h rate of imazamox
Description: as §6

[11] = system: backcross-derived plants in populations P00.35 and P00.45; assay: Segregation of backcross-derived plants P00.35 and P00.45; assay type: in vivo, T. aestivum; conditions: 20 g/h of imazamox; single heterozygous tolerance gene
Text: (§7) EMIMI is the designation of the T. monococcum EM2 source parent. Crocus is the designation of the T. aestivum ssp aestivum parent used. 605 florets of crocus were pollinated with EMIMI pollen, resulting in 84 F1 seed. 38,409 florets of the F1 plants were pollinated using Crocus pollen, resulting in 2 embryos which were embryo-rescued. The resultant BC1F1 plants were selfed to BC1F2 and treated with 20 g/ha of imazamox. […] Resistant plants were crossed by the bread wheat variety Tea1, representing the 3rd dose of bread wheat. Plants of the resultant line, with a pedigree of Crocus*2/EMIMI//CDC Tea1/3/ were crossed with either AC Elsa or AC Superb and coded respectively, 98PH8 (Elsa cross) and 98PH9 (Superb cross), 98PH8 was crossed an additional six times with AC Elsa and 98PH8 was crossed an additional six times with AC Superb. Two populations were coded as follows: • P00.35=98PH8/6*Elsa=Crocus*2/EM2//CDC Tea1/3/7*AC Elsa • P00.45=98PH9/6*Superb=Crocus*2/EM2//CDC Tea1/3/7*AC Superb. Segregation of the backcross-derived plants in both populations fit an expected 1:1 tolerant:susceptible single gene model when treated with 20 g/h of imazamox. […] Doubled haploids were produced from each population using the maize pollination method. Seven resistant DH lines were obtained from P00.35 and 78 resistant DH lines were obtained from P00.45.

[12] = system: BC1F2 plants of Crocus*2/EMIMI; assay: Herbicide treatment of BC1F2 plants (Crocus x EMIMI); assay type: in vivo, T. aestivum x T. monococcum; conditions: 20 g/ha of imazamox, 24 plants treated
Text: as §7

[13] = higher rate, 600 grams per hectare
[14] = lower rate, 200 grams per hectare

COCc1cnc(C2=NC(C)(C(C)C)C(=O)N2)c(C(=O)O)c1 (centres unmarked) [imazamox]
plants killed ([1]; 200 and 600 grams per hectare): No plants were killed | seedling injury ([1]; 200 and 600 grams per hectare, line still segregating): some plants exhibiting injury at both rates | plants without injury ([1]; highest rate, 600 grams per hectare): approximately half the plants had no injury | plant kill [2]: killed | plants killed (Tea1 15A; 200 and 600 grams per hectare): No plants were killed | seedling injury (Tea1 15A; [13]): all were injured | seedling injury (Tea1 15A; [14]): No injury | tolerance ([3]; 40 g/ha rate, field): excellent tolerance | overall crop injury ([3]; 1999, three times during the growing season): only slight injury | overall crop injury [3]; 2000: no injury | plant kill ([4]; 20 g/ha imazamox): killed | plant kill at the rate of the inheritance studies ([4]; 20 grams per hectare): sufficient to kill | plants killed ([5]; 200 and 600 grams per hectare): No plants were killed | seedling injury [5, 13]: all were injured | seedling injury [5, 14]: No injury | tolerance [6]: tolerant | susceptibility of plants ([7]; 40 grams of imazamox, field): all plants dying | overall crop injury ([7]; 2000, non-herbicide tolerant check): virtually killed | plants identified as tolerant [8]: Five | tolerance of plants ([9]; F4:5 lines, 80 g/h of imazamox): all plants were tolerant | susceptible plants ([9]; F4:5 lines, 124 plants treated with 80 g/h): no susceptible plants were found | survival of plants ([9]; F4 plants, 80 g/h imazamox): All 53 F4 plants tested survived | plants killed (BW755 (FS4 only line)): No plants were killed | seedling injury (BW755 (FS4 only line)): injured at both rates | plants identified as resistant (no injury from herbicide application) [10]: 52/390 | injury of plants scored as tolerant [11]: sustained some injury | fully resistant plants [12]: 11 | plants that showed some injury [12]: 7 | susceptible plants [12]: 6
